This is an account of results in the supplement of paper PMC10307832.

Common to all, as to test: relative viability (nuclei count vs DMSO), 5 days (fraction); higher = more cells survive
Compound in the test “Tanzisertib + OSI-027”: O[C@H]1CC[C@H](Nc2ncc3nc(Nc4c(F)cc(F)cc4F)n([C@H]4CCOC4)c3n2)CC1 [Tanzisertib] + COc1cccc2cc(-c3nc([C@H]4CC[C@H](C(=O)O)CC4)n4ncnc(N)c34)[nH]c12 [OSI-027] (partner 0.5 µM)
The gist of the method:
(§1)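 One day after seeding in 1536-well plates, lung cancer cell lines were dosed by pin tool. Dosing was either single-drug or a fixed anchor-drug dose plus five library-drug doses (not always all listed) in √10 steps. After 5 days, nuclei were stained in one fix-and-stain step and counted on 4× images, and relative viability is the nuclei count of treated wells over that of vehicle wells, given as the median of duplicate plates.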

Compound in test [1]: C1CNCCC1C2=CC(=NN2)C3=CC=NC=C3 + CC(C)C[C@H](NC(=O)[C@H](Cc1ccccc1)NC(=O)c1cnccn1)B(O)O [Bortezomib] (partner 0.002 µM)
Put shortly: as §1

Compound in test [2]: C1CNCCC1C2=CC(=NN2)C3=CC=NC=C3 + C[C@]1(O)C[C@@H](c2nc(-c3ccc4ccc(-c5ccccc5)nc4c3)c3c(N)nccn32)C1 [Linsitinib] (partner 1 µM)
The gist of the method: as §1

Compound in test [3]: C[C@@H](N)c1ccc(C(=O)Nc2ccnc3[nH]ccc23)cc1 + Nc1nc2[nH]cc(CCc3ccc(C(=O)N[C@@H](CCC(=O)O)C(=O)O)cc3)c2c(=O)[nH]1 [Pemetrexed] (partner 0.2 µM)
The gist of the method: as §1

Regarding NCI-H3122, the relative viability in the test with Tanzisertib + OSI-027 (first compound 0.08 µM) was 1.26; with Tanzisertib + OSI-027 (first compound 0.253 µM), 0.869; with Tanzisertib + OSI-027 (first compound 0.8 µM), 0.939; with Tanzisertib + OSI-027 (first compound 2.53 µM), 0.955; in the test with Tanzisertib + OSI-027 (first compound 8 µM), 0.946; in test [1] (first compound 0.08 µM), 0.989. Also, the relative viability in test [1] (first compound 0.8 µM) was found to be 1.04; in test [1] (first compound 2.53 µM), 1.04; in test [1] (first compound 8 µM), 0.965; in test [2] (first compound 0.08 µM) it was 0.981; in test [2] (first compound 0.8 µM), 0.981; in test [2] (first compound 2.53 µM), 1.06. For the same cell line, the relative viability came out at 1.04 in test [2] (first compound 8 µM); 0.202 in test [3] (first compound 0.04 µM); 0.216 in test [3] (first compound 0.1265 µM); 0.203 in test [3] (first compound 0.4 µM); 0.21 in test [3] (first compound 1.265 µM); 0.222 in test [3] (first compound 4 µM).
As to PC-3 [JPC-3], the relative viability with Tanzisertib + OSI-027 (first compound 0.08 µM) is 0.862; with Tanzisertib + OSI-027 (first compound 0.253 µM), 0.721; with Tanzisertib + OSI-027 (first compound 0.8 µM) it was 0.833; in the test with Tanzisertib + OSI-027 (first compound 2.53 µM), 0.789; in the test with Tanzisertib + OSI-027 (first compound 8 µM) it was 0.699; in test [1] (first compound 0.08 µM), 0.845. Besides, the relative viability in test [1] (first compound 0.8 µM) is 0.814; in test [1] (first compound 2.53 µM), 0.811; in test [1] (first compound 8 µM) it was 0.793; in test [2] (first compound 0.08 µM) it was 0.913; in test [2] (first compound 0.8 µM), 0.975; in test [2] (first compound 2.53 µM) it was 0.936. Besides, the relative viability came to 0.896 in test [2] (first compound 8 µM); 1.12 in test [3] (first compound 0.04 µM); 1.07 in test [3] (first compound 0.1265 µM); 1.16 in test [3] (first compound 0.4 µM); 1.07 in test [3] (first compound 1.265 µM); 0.88 in test [3] (first compound 4 µM).
For the cell line PC-14, the relative viability with Tanzisertib + OSI-027 (first compound 0.08 µM) came to 1.28; with Tanzisertib + OSI-027 (first compound 0.253 µM) it was 0.745; with Tanzisertib + OSI-027 (first compound 0.8 µM), 0.723; with Tanzisertib + OSI-027 (first compound 2.53 µM) it was 0.816; in the test with Tanzisertib + OSI-027 (first compound 8 µM), 0.427; in test [1] (first compound 0.08 µM), 0.897. Besides, the relative viability in test [1] (first compound 0.8 µM) was 0.951; in test [1] (first compound 2.53 µM), 0.945; in test [1] (first compound 8 µM) it was 0.789; in test [2] (first compound 0.08 µM), 0.997; in test [2] (first compound 0.8 µM), 0.992; in test [2] (first compound 2.53 µM), 1.03. For the same cell line, the relative viability in test [2] (first compound 8 µM) is 0.941; in test [3] (first compound 0.04 µM), 0.139; in test [3] (first compound 0.1265 µM), 0.126; in test [3] (first compound 0.4 µM), 0.138; in test [3] (first compound 4 µM) it was 0.169.
For RERF-LC-KJ, the relative viability worked out at 0.625 in the test with Tanzisertib + OSI-027 (first compound 0.08 µM); 0.566 with Tanzisertib + OSI-027 (first compound 0.253 µM); 0.598 with Tanzisertib + OSI-027 (first compound 0.8 µM); 0.503 with Tanzisertib + OSI-027 (first compound 2.53 µM); 0.489 with Tanzisertib + OSI-027 (first compound 8 µM); 1.09 in test [1] (first compound 0.08 µM). The relative viability in test [1] (first compound 0.8 µM) came to 1.22; in test [1] (first compound 2.53 µM), 1.16; in test [1] (first compound 8 µM) it was 1.12; in test [2] (first compound 0.08 µM) it was 0.925; in test [2] (first compound 0.8 µM), 0.931; in test [2] (first compound 2.53 µM), 0.903. Further, the relative viability in test [2] (first compound 8 µM) came out at 0.903; in test [3] (first compound 0.04 µM), 0.496; in test [3] (first compound 0.1265 µM), 0.486; in test [3] (first compound 0.4 µM), 0.472; in test [3] (first compound 1.265 µM) it was 0.47; in test [3] (first compound 4 µM), 0.424.
On to SK-LU-1, for which the relative viability is 0.392 in the test with Tanzisertib + OSI-027 (first compound 0.08 µM); 0.324 in the test with Tanzisertib + OSI-027 (first compound 0.253 µM); 0.319 with Tanzisertib + OSI-027 (first compound 0.8 µM); 0.354 with Tanzisertib + OSI-027 (first compound 2.53 µM); 0.365 with Tanzisertib + OSI-027 (first compound 8 µM); 1 in test [1] (first compound 0.08 µM). In addition, the relative viability in test [1] (first compound 2.53 µM) was determined as 1.38; in test [1] (first compound 8 µM) it was 1.27; in test [2] (first compound 0.08 µM), 1.05; in test [2] (first compound 0.8 µM), 1.07; in test [2] (first compound 2.53 µM), 1.19; in test [2] (first compound 8 µM) it was 1.23. Also, the relative viability in test [3] (first compound 0.04 µM) worked out at 0.952; in test [3] (first compound 0.1265 µM), 0.892; in test [3] (first compound 0.4 µM) it was 0.933; in test [3] (first compound 1.265 µM) it was 0.809; in test [3] (first compound 4 µM) it was 0.558.
For SW 1573, the relative viability with Tanzisertib + OSI-027 (first compound 0.08 µM) amounted to 0.829; with Tanzisertib + OSI-027 (first compound 0.253 µM), 0.594; in the test with Tanzisertib + OSI-027 (first compound 0.8 µM), 0.558; in the test with Tanzisertib + OSI-027 (first compound 2.53 µM) it was 0.592; in the test with Tanzisertib + OSI-027 (first compound 8 µM) it was 0.484; in test [1] (first compound 0.08 µM), 0.75. The relative viability in test [1] (first compound 0.8 µM) was found to be 1.22; in test [1] (first compound 2.53 µM), 1.11; in test [1] (first compound 8 µM) it was 1.12; in test [2] (first compound 0.08 µM) it was 0.815; in test [2] (first compound 0.8 µM), 0.786; in test [2] (first compound 2.53 µM), 0.902. Besides, the relative viability was 0.952 in test [2] (first compound 8 µM); 0.792 in test [3] (first compound 0.04 µM); 0.792 in test [3] (first compound 0.1265 µM); 0.845 in test [3] (first compound 0.4 µM); 0.582 in test [3] (first compound 1.265 µM); 0.703 in test [3] (first compound 4 µM).
